Columns and labels:
[1] = test system: RSV (RSV A2 ECACC, 0709161v); test: RSV plaque reduction assay; type: cell-based, respiratory syncytial virus; conditions: human respiratory syncytial virus, HepG2, read-out: RSV A2 Plaque EC50, RSV A2 in Hep-G2 cells; mean of at least two experiments unless noted (n = 1)
Summary of the method: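 Hep-G2 monolayers infected with 100 PFU/well RSV A2 premixed with eight serial compound dilutions (2 h, 37° C.), then kept 2 days under CMC overlay with compound in DMEM/2% FBS. Plaques immunostained (HRP/TrueBlue) and counted; % infection versus virus control gives EC50, mean of at least two experiments, rounded.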

[2] = cell toxicity CC50; type: cell-based; conditions: human; Hep-G2 cells; mean of at least two experiments; read-out: Cell Cytotoxicity CC50

Q: What does the source list for O=C(N[C@H]1N=C(c2ccccc2)c2ccccc2NC1=O)c1c(-c2ccccc2F)nn2c1OCC1(COC1)C2 [Example 29]?
A: EC50 [1]: 78 nM; CC50 [2]: > 25000 nM

Q: For C[C@H]1COc2c(C(=O)N[C@H]3N=C(c4ccccc4)c4cccc(F)c4NC3=O)c(-c3ccccc3F)nn2C1 [Example 10, (6R)-N-[(3S)-9-fluoro-2-oxo-5-phenyl-1,3-dihydro-1,4-benzodiazepin-3-yl]-2-(2-fluorophenyl)-6-methyl-6,7-dihydro-5H-pyrazolo[5,1-b][1,3]oxazine-3-carboxamide], which EC50 [1] is on record?
A: The EC50 was 23 nM.

Q: What about the CC50 [2] of the same compound?
A: The CC50 was greater than 25000 nM.

Q: With O=C(N[C@H]1N=C(c2ccccc2)c2cccc(F)c2NC1=O)c1c(Br)nn2c1OCCC2 [Example 195, 2-Bromo-N-[(3S)-9-fluoro-2-oxo-5-phenyl-1,3-dihydro-1,4-benzodiazepin-3-yl]-6,7-dihydro-5H-pyrazolo[5,1-b][1,3]oxazine-3-carboxamide] as the compound, how does the EC50 [1] read?
A: The EC50 was 355 nM.

Q: And the CC50 [2]?
A: The CC50 was greater than 25000 nM.

Q: For C[C@H]1CCn2nc(-c3ccc(N4C[C@H]5C[C@@H]4CO5)nc3)c(C(=O)N[C@H]3N=C(c4ccccc4)c4cccc(F)c4NC3=O)c2O1 [Example 94, (5S)-5-Methyl-N-[(3S)-9-fluoro-2-oxo-5-phenyl-1,3-dihydro-1,4-benzodiazepin-3-yl]-2-[6-[(1R,4R)-2-oxa-5-azabicyclo[2.2.1]heptan-5-yl]pyridin-3-yl]-6,7-dihydro-5H-pyrazolo[5,1-b][1,3]oxazine-3-carboxamide], which EC50 [1] is on record?
A: Its EC50 is 44 nM.

Q: And the CC50 [2]?
A: The CC50 was greater than 25000 nM.

Q: What does the source list for C[C@@H]1CCn2nc(C3CCCCC3)c(C(=O)N[C@H]3N=C(c4ccccc4)c4cccc(F)c4NC3=O)c2O1 [Example 114, (5R)-2-Cyclohexyl-N-[(3S)-9-fluoro-2-oxo-5-phenyl-1,3-dihydro-1,4-benzodiazepin-3-yl]-5-methyl-6,7-dihydro-5H-pyrazolo[5,1-b][1,3]oxazine-3-carboxamide]?
A: EC50 [1]: 117 nM; CC50 [2]: 17100 nM

Q: For O=C(N[C@H]1N=C(c2ccccc2)c2cccc(F)c2NC1=O)c1c(-c2cnn(C3CCOCC3)c2)nn2c1OCCC2 [Example 152, N-[(3S)-9-Fluoro-2-oxo-5-phenyl-1,3-dihydro-1,4-benzodiazepin-3-yl]-2-[1-(oxan-4-yl)pyrazol-4-yl]-6,7-dihydro-5H-pyrazolo[5,1-b][1,3]oxazine-3-carboxamide], which EC50 [1] is on record?
A: The EC50 was 84 nM.

Q: And the CC50 [2]?
A: Its CC50 is greater than 25000 nM.

Q: For CC(C)Nc1ccc(-c2nn3c(c2C(=O)N[C@H]2N=C(c4ccccc4)c4cccc(F)c4NC2=O)OCCC3)c(F)n1 [Example 4, N-[(3S)-9-Fluoro-2-oxo-5-phenyl-1,3-dihydro-1,4-benzodiazepin-3-yl]-2-[2-fluoro-6-(propan-2-ylamino)pyridin-3-yl]-6,7-dihydro-5H-pyrazolo[5,1-b][1,3]oxazine-3-carboxamide], which EC50 [1] is on record?
A: Its EC50 is 29 nM.

Q: What about the CC50 [2] of the same compound?
A: The CC50 was greater than 25000 nM.

Q: Which EC50 [1] does the source give for CCn1cc(-c2nn3c(c2C(=O)N[C@H]2N=C(c4ccccc4)c4cccc(F)c4NC2=O)O[C@H](C)CC3)cn1 [Example 84, (5R)-2-(1-Ethylpyrazol-4-yl)-N-[(3S)-9-fluoro-2-oxo-5-phenyl-1,3-dihydro-1,4-benzodiazepin-3-yl]-5-methyl-6,7-dihydro-5H-pyrazolo[5,1-b][1,3]oxazine-3-carboxamide] here?
A: Its EC50 is 70 nM.

Q: What about the CC50 [2] of the same compound?
A: Its CC50 is greater than 25000 nM.

Q: What does the source list for C[C@@H]1CCn2nc(-c3ccc(N4CC5(COC5)C4)nc3F)c(C(=O)N[C@H]3N=C(c4ccccc4)c4cccc(F)c4NC3=O)c2O1 (single isomer, unassigned) [Example 91]?
A: EC50 [1]: 239 nM; CC50 [2]: > 25000 nM

Q: What does the source list for O=C(N[C@H]1N=C(c2ccccc2)c2ccccc2NC1=O)c1nn2c(c1-c1ccccc1F)OCCC2 [Example 36, 3-(2-Fluorophenyl)-N-[(3S)-2-oxo-5-phenyl-1,3-dihydro-1,4-benzodiazepin-3-yl]-6,7-dihydro-5H-pyrazolo[5,1-b][1,3]oxazine-2-carboxamide]?
A: EC50 [1]: 444 nM; CC50 [2]: > 25000 nM

Q: What does the source list for C[C@@H]1CCn2nc(-c3ccc(S(=O)(=O)N(C)C)cc3F)c(C(=O)N[C@H]3N=C(c4ccccc4)c4cccc(F)c4NC3=O)c2O1 [Example 200, (5R)-2-[4-(Dimethylsulfamoyl)-2-fluorophenyl]-N-[(3S)-9-fluoro-2-oxo-5-phenyl-1,3-dihydro-1,4-benzodiazepin-3-yl]-5-methyl-6,7-dihydro-5H-pyrazolo[5,1-b][1,3]oxazine-3-carboxamide]?
A: EC50 [1]: 1 nM; CC50 [2]: > 25000 nM

Q: What does the source list for C[C@@H]1CCn2nc(C3CCN(S(C)(=O)=O)CC3)c(C(=O)N[C@H]3N=C(c4ccccc4)c4ccccc4NC3=O)c2O1 [Example 162, (5R)-5-Methyl-2-(1-methylsulfonylpiperi-din-4-yl)-N-[(3S)-2-oxo-5-phenyl-1,3-dihydro-1,4-benzodiazepin-3-yl]-6,7-dihydro-5H-pyrazolo[5,1-b][1,3]oxazine-3-carboxamide]?
A: EC50 [1]: 166 nM; CC50 [2]: > 25000 nM

Q: With CC(C)Nc1ccc(-c2nn3c(c2C(=O)N[C@H]2N=C(c4ccccc4)c4cccc(F)c4NC2=O)O[C@H](C)CC3)c(F)n1 [Example 30, (5R)-N-[(3S)-9-fluoro-2-oxo-5-phenyl-1,3-dihydro-1,4-benzodiazepin-3-yl]-2-[2-fluoro-6-(propan-2-ylamino)pyridin-3-yl]-5-methyl-6,7-dihydro-5H-pyrazolo[5,1-b][1,3]oxazine-3-carboxamide] as the compound, how does the EC50 [1] read?
A: The EC50 was 16 nM.

Q: And the CC50 [2]?
A: The CC50 was greater than 25000 nM.

Q: Which EC50 [1] does the source give for O=C(N[C@H]1N=C(c2ccccc2)c2cccc(F)c2NC1=O)c1c(-c2ccc(F)cc2F)nn2c1SCCC2 [Example 34, 2-(2,4-Difluorophenyl)-N-[(3S)-9-fluoro-2-oxo-5-phenyl-2,3-dihydro-1H-1,4-benzodiazepin-3-yl]-5H,6H,7H-pyrazolo[3,2-b][1,3]thiazine-3-carboxamide] here?
A: Its EC50 is 143 nM.

Q: What about the CC50 [2] of the same compound?
A: Its CC50 is greater than 25000 nM.

Q: What does the source list for C[C@@H]1CCn2nc(-c3cnn(CCN(C)C)c3)c(C(=O)N[C@H]3N=C(c4ccccc4)c4cccc(F)c4NC3=O)c2O1 [Example 165, (5R)-2-[1-[2-(Dimethylamino)ethyl]pyrazol-4-yl]-N-[(3S)-9-fluoro-2-oxo-5-phenyl-1,3-dihydro-1,4-benzodiazepin-3-yl]-5-methyl-6,7-dihydro-5H-pyrazolo[5,1-b][1,3]oxazine-3-carboxamide]?
A: EC50 [1]: 349 nM; CC50 [2]: > 25000 nM

Q: Which results are given for CCNc1ccc(-c2nn3c(c2C(=O)N[C@H]2N=C(c4ccccc4)c4cccc(F)c4NC2=O)O[C@H](C)CC3)cn1 [Example 52, (5R)-2-[6-(Ethylamino)-3-pyridyl]-N-[(3S)-9-fluoro-2-oxo-5-phenyl-1,3-dihydro-1,4-benzodiazepin-3-yl]-5-methyl-6,7-dihydro-5H-pyrazolo[5,1-b][1,3]oxazine-3-carboxamide]?
A: EC50 [1]: 28 nM; CC50 [2]: > 25000 nM

Q: Which results are given for O=C(N[C@H]1N=C(c2ccccc2)c2cccc(F)c2NC1=O)c1c(-c2cccnc2)nn2c1OCCC2 [Example 17, N-[(3S)-9-Fluoro-2-oxo-5-phenyl-1,3-dihydro-1,4-benzodiazepin-3-yl]-2-pyridin-3-yl-6,7-dihydro-5H-pyrazolo[5,1-b][1,3]oxazine-3-carboxamide]?
A: EC50 [1]: 180 nM; CC50 [2]: > 25000 nM

Q: For Cc1cnc(F)c(-c2nn3c(c2C(=O)N[C@H]2N=C(c4ccccc4)c4cccc(F)c4NC2=O)OCCC3)c1 [Example 43, 2-(2-Fluoro-5-methylpyridin-3-yl)-N-[(3S)-9-fluoro-2-oxo-5-phenyl-1,3-dihydro-1,4-benzodiazepin-3-yl]-6,7-dihydro-5H-pyrazolo[5,1-b][1,3]oxazine-3-carboxamide], which EC50 [1] is on record?
A: The EC50 was 101 nM.

Q: And the CC50 [2]?
A: The CC50 was greater than 25000 nM.

Q: Which results are given for CC1CCOc2c(C(=O)N[C@H]3N=C(c4ccccc4)c4cccc(F)c4NC3=O)c(-c3ccccc3F)nn21 (stereo partly drawn) [Example 105, N-[(3S)-9-fluoro-2-oxo-5-phenyl-1,3-dihydro-1,4-benzodiazepin-3-yl]-2-(2-fluorophenyl)-7-methyl-6,7-dihydro-5H-pyrazolo[5,1-b][1,3]oxazine-3-carboxamide]?
A: EC50 [1]: 48 nM; CC50 [2]: > 25000 nM

Q: Which EC50 [1] does the source give for CCc1ccc(-c2nn3c(c2C(=O)N[C@H]2N=C(c4ccccc4)c4ccccc4NC2=O)O[C@@H](C)CC3)cn1 [Example 132, (5S)-2-(6-Ethylpyridin-3-yl)-5-methyl-N-[(3S)-2-oxo-5-phenyl-1,3-dihydro-1,4-benzodiazepin-3-yl]-6,7-dihydro-5H-pyrazolo[5,1-b][1,3]oxazine-3-carboxamide] here?
A: Its EC50 is 72 nM.

Q: And the CC50 [2]?
A: The CC50 was greater than 25000 nM.

Q: Which results are given for C[C@@H]1CCn2nc(-c3ccc(N4C[C@@H]5C[C@H]4CO5)nc3F)c(C(=O)N[C@H]3N=C(c4ccccc4)c4cccc(F)c4NC3=O)c2O1 (single isomer, unassigned) [Example 88]?
A: EC50 [1]: 146 nM; CC50 [2]: > 25000 nM

Q: Which EC50 [1] does the source give for CN(C)CC1COc2c(C(=O)N[C@H]3N=C(c4ccccc4)c4cccc(F)c4NC3=O)c(-c3ccccc3F)nn2C1 (single isomer, unassigned) [Example 171-2, (6S*)-6-[(Dimethylamino)methyl]-N-[(3S)-9-fluoro-2-oxo-5-phenyl-1,3-dihydro-1,4-benzodiazepin-3-yl]-2-(2-fluorophenyl)-6,7-dihydro-5H-pyrazolo[5,1-b][1,3]oxazine-3-carboxamide] here?
A: Its EC50 is 56 nM.

Q: What about the CC50 [2] of the same compound?
A: Its CC50 is greater than 25000 nM.

Q: What does the source list for O=C(N[C@H]1N=C(c2ccccc2)c2cccc(F)c2NC1=O)c1c(-c2ccccc2F)nn2c1OCC1(CC1)C2 [Example 13]?
A: EC50 [1]: 28 nM; CC50 [2]: > 24000 nM

Q: What does the source list for N#Cc1ccc(-c2nn3c(c2C(=O)N[C@H]2N=C(c4ccccc4)c4cccc(F)c4NC2=O)OCCC3)c(F)c1 [Example 138, 2-(4-Cyano-2-fluorophenyl)-N-[(3S)-9-fluoro-2-oxo-5-phenyl-1,3-dihydro-1,4-benzodiazepin-3-yl]-6,7-dihydro-5H-pyrazolo[5,1-b][1,3]oxazine-3-carboxamide]?
A: EC50 [1]: 54 nM; CC50 [2]: > 25000 nM

Source: patent US12678446B2 (PFIZER INC., priority 2020, dated 2026)
